SMILES strings stand for the structures. In brackets after ≈: the same amount, converted by molar mass.

The term MIC denotes the smallest concentration in the dilution series that meets the test's criterion for growth inhibition. For orientation: IC50 means the concentration that inhibits the measured activity by half. The low end stands for greater potency, the high end for weaker potency.

In one experiment the test system is Bacillus subtilis. The experiment is described as follows: Antibacterial activity against Bacillus subtilis after 18 hrs by macrodilution method. The class given is functional.
Another experiment concerns Pseudomonas aeruginosa. Kind of experiment: Antibacterial activity against Pseudomonas aeruginosa after 18 hrs by macrodilution method. The class given is functional.
In experiment [1] the test system is Staphylococcus aureus. Kind of experiment: Antibacterial activity against Staphylococcus aureus after 18 hrs by macrodilution method. The class given is functional.
Experiment [2] deals with Staphylococcus aureus. The experiment is described as follows: Antibacterial activity against Staphylococcus aureus. The class given is functional, organism-based.

Regarding `COC(=O)CC[C@@H](C)[C@H]1CC[C@H]2[C@@H]3CC[C@@H]4C/C(=N/NC(=S)Nc5ccc(Br)cc5)CC[C@]4(C)[C@H]3CC(=O)[C@]12C`, the MIC was more than 128 µg/mL with Bacillus subtilis, 2 µg/mL (≈ 3.17 µM) in the experiment on Pseudomonas aeruginosa and more than 128 µg/mL with Staphylococcus aureus [1].
On to `COC(=O)CC[C@@H](C)[C@H]1CC[C@H]2[C@@H]3CC[C@@H]4C/C(=N/NC(=S)Nc5ccc(OC)cc5)CC[C@]4(C)[C@H]3CC(=O)[C@]12C`, for which the MIC is more than 128 µg/mL against Bacillus subtilis, 2 µg/mL (≈ 3.44 µM) with Pseudomonas aeruginosa and more than 128 µg/mL with Staphylococcus aureus [1].
Consider `COC(=O)CC[C@@H](C)[C@H]1CC[C@H]2[C@@H]3C(=O)C[C@@H]4C/C(=N/NC(=S)Nc5ccc(OC)cc5)CC[C@]4(C)[C@H]3CC[C@]12C`, for which the MIC amounted to 32 µg/mL (≈ 55 µM) against Bacillus subtilis, 128 µg/mL (≈ 220 µM) against Pseudomonas aeruginosa and 128 µg/mL (≈ 220 µM) against Staphylococcus aureus [1].
In the case of `COC(=O)CC[C@@H](C)[C@H]1CC[C@H]2[C@@H]3C(=O)C[C@@H]4C/C(=N/NC(=S)Nc5ccc(F)cc5)CC[C@]4(C)[C@H]3CC[C@]12C`, the MIC in the experiment with Bacillus subtilis, in the experiment on Pseudomonas aeruginosa and in the experiment with Staphylococcus aureus [1] was 128 µg/mL (≈ 225 µM) throughout.
On to `COC(=O)CC[C@@H](C)[C@H]1CC[C@H]2[C@@H]3C(=O)C[C@@H]4C/C(=N/NC(=S)Nc5ccc(C)cc5)CC[C@]4(C)[C@H]3CC[C@]12C`, for which the MIC is 32 µg/mL (≈ 56.6 µM) with Bacillus subtilis, 16 µg/mL (≈ 28.3 µM) against Pseudomonas aeruginosa and more than 128 µg/mL against Staphylococcus aureus [1].
In the same order, the values of `COC(=O)CC[C@@H](C)[C@H]1CC[C@H]2[C@@H]3C(=O)C[C@@H]4C/C(=N/NC(=S)Nc5cccc6ccccc56)CC[C@]4(C)[C@H]3CC[C@]12C` are 32 µg/mL (≈ 53.2 µM), 16 µg/mL (≈ 26.6 µM) and more than 128 µg/mL.
Take `COC(=O)CC[C@@H](C)[C@H]1CC[C@H]2[C@@H]3CC[C@@H]4C/C(=N/NC(=S)Nc5ccccc5)CC[C@]4(C)[C@H]3CC(=O)[C@]12C`: the MIC was 64 µg/mL (≈ 116 µM) with Bacillus subtilis, 32 µg/mL (≈ 58 µM) in the experiment with Pseudomonas aeruginosa and more than 128 µg/mL in the experiment on Staphylococcus aureus [1].
As to `COC(=O)CC[C@@H](C)[C@H]1CC[C@H]2[C@@H]3CC[C@@H]4C/C(=N/NC(=S)Nc5ccc(F)cc5)CC[C@]4(C)[C@H]3CC(=O)[C@]12C`, the MIC in the experiment with Bacillus subtilis was more than 128 µg/mL; against Pseudomonas aeruginosa it was 4 µg/mL (≈ 7.02 µM); with Staphylococcus aureus [1], more than 128 µg/mL.
With `COC(=O)CC[C@@H](C)[C@H]1CC[C@H]2[C@@H]3C/C(=N/NC(=S)Nc4ccc(OC)cc4)[C@@H]4C/C(=N/NC(=S)Nc5ccc(OC)cc5)CC[C@]4(C)[C@H]3CC[C@]12C`, the MIC came to 128 µg/mL (≈ 168 µM) in the experiment on Bacillus subtilis, 4 µg/mL (≈ 5.26 µM) against Pseudomonas aeruginosa and 32 µg/mL (≈ 42 µM) against Staphylococcus aureus [1].
In the same order, the values of `COC(=O)CC[C@@H](C)[C@H]1CC[C@H]2[C@@H]3C/C(=N/NC(=S)Nc4ccc(C)cc4)[C@@H]4C/C(=N/NC(=S)Nc5ccc(C)cc5)CC[C@]4(C)[C@H]3CC[C@]12C` are 128 µg/mL (≈ 176 µM), 4 µg/mL (≈ 5.49 µM) and 128 µg/mL (≈ 176 µM).
The matching figures for `COC(=O)CC[C@@H](C)[C@H]1CC[C@H]2[C@@H]3C/C(=N/NC(=S)Nc4ccc(Br)cc4)[C@@H]4C/C(=N/NC(=S)Nc5ccc(Br)cc5)CC[C@]4(C)[C@H]3CC[C@]12C`: 128 µg/mL (≈ 149 µM), 2 µg/mL (≈ 2.33 µM) and 64 µg/mL (≈ 74.5 µM).
As for `COC(=O)CC[C@@H](C)[C@H]1CC[C@H]2[C@@H]3C/C(=N/NC(=S)Nc4cccc(F)c4)[C@@H]4C/C(=N/NC(=S)Nc5cccc(F)c5)CC[C@]4(C)[C@H]3CC[C@]12C`, the MIC with Bacillus subtilis stood at 128 µg/mL (≈ 174 µM); with Pseudomonas aeruginosa, 128 µg/mL (≈ 174 µM); with Staphylococcus aureus [1], 32 µg/mL (≈ 43.4 µM).
With `COC(=O)CC[C@@H](C)[C@H]1CC[C@H]2[C@@H]3/C(=N/NC(=S)Nc4ccccc4)C[C@@H]4C/C(=N/NC(=S)Nc5ccccc5)CC[C@]4(C)[C@H]3CC[C@]12C`, the MIC in the experiment with Bacillus subtilis is 128 µg/mL (≈ 183 µM); against Pseudomonas aeruginosa it was 8 µg/mL (≈ 11.4 µM); in the experiment on Staphylococcus aureus [1], more than 128 µg/mL.
For the compound `COC(=O)CC[C@@H](C)[C@H]1CC[C@H]2[C@@H]3/C(=N/NC(=S)Nc4ccc(OC)cc4)C[C@@H]4C/C(=N/NC(=S)Nc5ccc(OC)cc5)CC[C@]4(C)[C@H]3CC[C@]12C`, the minimal inhibitory concentration (MIC) in the experiment on Bacillus subtilis was more than 128 µg/mL; with Pseudomonas aeruginosa, 4 µg/mL (≈ 5.26 µM); in the experiment on Staphylococcus aureus [1], 64 µg/mL (≈ 84.1 µM). In addition, it took 3.25 µg/mL (≈ 4.27 µM) to reach half-maximal inhibition in the experiment with Staphylococcus aureus [2] (IC50).
The matching figures for `COC(=O)CC[C@@H](C)[C@H]1CC[C@H]2[C@@H]3/C(=N/NC(=S)Nc4ccc(Br)cc4)C[C@@H]4C/C(=N/NC(=S)Nc5ccc(Br)cc5)CC[C@]4(C)[C@H]3CC[C@]12C`: more than 128 µg/mL, 16 µg/mL (≈ 18.6 µM), 32 µg/mL (≈ 37.3 µM) and 2.85 µg/mL (≈ 3.32 µM).
The matching figures for `COC(=O)CC[C@@H](C)[C@H]1CC[C@H]2[C@@H]3/C(=N/NC(=S)Nc4cccc(F)c4)C[C@@H]4C/C(=N/NC(=S)Nc5cccc(F)c5)CC[C@]4(C)[C@H]3CC[C@]12C`: 8 µg/mL (≈ 10.9 µM), 32 µg/mL (≈ 43.4 µM), 8 µg/mL (≈ 10.9 µM) and 1.02 µg/mL (≈ 1.38 µM).
In the same order, the values of `CC1(C)S[C@@H]2[C@H](NC(=O)[C@H](N)c3ccc(O)cc3)C(=O)N2[C@H]1C(=O)O` [AMOXICILLIN] are 16 µg/mL (≈ 43.8 µM), 2 µg/mL (≈ 5.47 µM), 32 µg/mL (≈ 87.6 µM) and 2.84 µg/mL (≈ 7.77 µM).

The values above are taken from ChEMBL document CHEMBL2203107, “Microwave-assisted synthesis and in vitro antibacterial activity of novel steroidal thiosemicarbazone derivatives” (Bioorg Med Chem Lett, 2012).
